The term IC50 denotes the midpoint of a concentration-inhibition curve. What is called Ki is a dissociation constant, usually derived from enzyme kinetics or from competition with a known ligand. The inhibition is the drop in the measured response relative to a control, in per cent.

Marks after values point to notes of the source that are not given here.

The target of experiment [1] is T1, human vasopressin V1a receptor (Homo sapiens, UniProt P37288). The experiment is described as follows: Functional assay on human vasopressin V1a receptor expressing cell line (intracellular Ca2+ fluorescence). Format: cell-based. The settings on record: 1321N1 cells, (Arg8)-vasopressin at EC80; read-out: IC50 (nM) on hV1a cell line.
For experiment [2], the target named is T1, human vasopressin V1a receptor. As to the kind of experiment: Human vasopressin V1a receptor binding assay. The settings on record: 1321N1 cell membranes, [3H]vasopressin; read-out: Ki (nM) on hV1a cell line. In a few lines: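 Radioligand competition on membranes from cells expressing human V1a receptor; incubation 60 minutes at 27° C., non-specific binding with 1.2×10^−6 M unlabeled (Arg^8)-vasopressin, filtration separation. Ki by Cheng-Prusoff using Scatchard-derived KD, from at least two independent experiments.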

The target of experiment [3] is human vasopressin V2 receptor (Homo sapiens, UniProt P30518). As to the kind of experiment: Human vasopressin V2 receptor binding assay on 1321N1 cell line. Particulars: for inhibition at 1 µM: read-out: inhibition % at 1 μM on hV2 1321N1 cell line; for Ki: 1321N1 cell line, read-out: Ki on hV2 1321N1 cell line. The protocol: Human Vasopressin V2 Receptor Binding Assay Cells and Radioligand
(§1) To determine the final affinity value, the results of at least two independent experiments were taken into account.
Non-specific binding values were determined in the presence of an unlabeled 1.2×10^−6 M (Arg^8)-vasopressin. Samples were incubated in a total volume of 0.55 ml for 90 minutes at 27° C. Membrane-bound and free ligands were separated by filtration through a 0.5% polyethyleneimine-impregnated UniFilter® GF/B™. After drying the filter plates, 40 μl Microscint-20 (Packard) scintillation cocktail was added to the samples. Finally, radioactivity was measured using MicroBeta^2 Microplate Counter (Perkin Elmer).
The radioligand displacement ability of a substance is determined in at least two independent experiments. Specific radioligand binding can be defined as the difference between total and non-specific binding in the presence of a saturation amount of the unlabeled ligand or different concentrations of the substance to be tested. The results are given as a percentage of inhibition of the specific binding achieved in the presence of the substance to be tested.
During fitting, the asymptotes are not fixed. The Ki values (inhibition constant) are given with Cheng-Prusoff equation Ki=IC50/[1+(L/KD)] wherein [L] is the radioligand concentration used in the experiment and [KD] is the affinity of the radioactively labelled ligand for the given receptor. The KD is determined beforehand using the Scatchard curve.

Experiment [4] has as its target mouse V1a receptor (Mus musculus, UniProt Q62463). The experiment is described as follows: Functional V1a in vivo test: inhibition of oxytocin-induced scratching behaviour. Particulars: mice. The protocol: Functional V1a In Vivo Test
Male mice (NMRI, ToxiCoop) weighing 18-40 g were used. Animals were kept at least 5 days after delivery, during housing and measurements they were fed and drink ad libitum. The experiments were permitted by the Local Animal Protection Committee and carried out in accordance with the European Animal Protection Directives (EU Directive 2010/63/EU).
Animal behaviour was measured by an automated behavioral analysis system (LABORAS™). The sensors located below platforms detect the mechanical vibration generated by the movement of animal, and transform into an electrical signal (Quinn et al., J Neurosci Methods 2003, 130:83-92). After analyzing signals, the system analyzes the time spent with the following behavioral parameters: locomotion, immobility, climbing, grooming. The grooming algorithm by definition is able to measure the scratching behavioral response. During the experiment, mice were pretreated with the test substance or vehicle, and after the pretreatment period scratching-inducing compound (s.c. 0.3 mg/kg oxytocin) was administered, and then the animals were individually placed into measuring cages. […] To reduce the exploratory activity, the animals were measured after a 1-hour habituation to the cage. The behavioural parameters were compared to the parallel measured parameters of the control animals.
The behavioural inhibitory effect of the substances was calculated with average values of parallel measured vehicle treated groups and presented as the percentage of inhibition: 0% was expressed as average value of scratching behaviour of vehicle pretreated animals (and phys. saline s.c. pretreated with vehicle), while 100% was expressed as average value of scratching of vehicle pretreated animals that received oxytocin subcutaneously. For statistical analysis one-way analysis of variance (ANOVA) with Tukey post hoc test were used.

The target of experiment [5] is mouse vasopressin V1a receptor (Mus musculus, UniProt Q62463). As to the kind of experiment: Mouse vasopressin V1a receptor binding assay. The settings on record: 1321N1 cell membranes; read-out: Ki (nM) on mV1a cell line.
From the text: Mouse Vasopressin V1a Receptor Binding Assay Cells and Radioligand
The immortalized 1321N1 cell line (B9/1321N1 clone) constitutively and stably expressing Mouse vasopressin V1a receptor vasopressin (8-L-Arginine), [Phenylalanyl-3,4,5-^3H(N)] labelled compound (Perkin Elmer Life and Analytical Sciences) as radioligand were used to determine the affinity of the prepared compounds.
Membrane-preparation: Membrane preparation of immortalized 1321N1 cells expressing the propagated mouse Vasopressin V1a receptor was made according to Jarvis's method (Jarvis et al., J Pharmacol Exp Ther […], 310:407-16). Cells were suspended in preparative buffer (50 mM Tris, 1 mM EDTA, 0.1 mM PMSF) and homogenized with glass homogenizing potter. To separate the raw membrane fraction two consecutive centrifugation procedures (40,000 g for 25 minutes at 4° C.) were executed, then the membrane was taken into the preparatory buffer during a final washing step, it was divided into aliquots which were stored at −80° C. until the time of measurement.
The protein content of the prepared membrane was determined according to Lowry's method using standard dilution line of bovine serum albumin (BSA) (Lowry et al., J Biol Chem 1951, 193:265-75).
as §1
Non-specific binding values were determined in the presence of an unlabeled 1.2×10^−6 M (Arg^8)-vasopressin. Samples were incubated in a total volume of 0.33 ml for 60 minutes at 27° C. Membrane-bound and free ligands were separated by filtration through a 0.5% polyethyleneimine-impregnated UniFilter® GF/B™ After drying the filter plates, 40 μl Microscint-20 (Packard) scintillation cocktail was added to the samples. Finally, radioactivity was measured using MicroBeta^2 Microplate Counter (Perkin Elmer).
The radioligand clamping ability of a substance is determined in at least two independent experiments. Specific radioligand binding can be defined as the difference between total and non-specific binding in the presence of a saturation amount of the unlabeled ligand or different concentrations of the substance to be tested. The results are given as a percentage of inhibition of the specific binding achieved in the presence of the substance to be tested.
The IC50 data (i.e. the concentration of the unknown substance which displaces 50% of specific bound radioligand) is calculated from the concentration-displacement curve using the sigmoid fitting mathematical method y=(A1−A2)/(1+(x/x0)p)+A2 with Origin 7.5. software (OriginLab Corporation, Northampton, USA). During fitting, the asymptotes are not fixed. The Ki values (inhibition constant) are given with Cheng-Prusoff equation Ki=IC50/[1+(L/KD)] wherein [L] is the radioligand concentration used in the experiment and [KD] is the affinity of the radioactively labelled ligand for the given receptor. The KD is determined beforehand using the Scatchard curve.

Where [6] appears, read: after i.p. treatment (table title: 10 mg/kg).

T1 sequence (P37288 whole entry): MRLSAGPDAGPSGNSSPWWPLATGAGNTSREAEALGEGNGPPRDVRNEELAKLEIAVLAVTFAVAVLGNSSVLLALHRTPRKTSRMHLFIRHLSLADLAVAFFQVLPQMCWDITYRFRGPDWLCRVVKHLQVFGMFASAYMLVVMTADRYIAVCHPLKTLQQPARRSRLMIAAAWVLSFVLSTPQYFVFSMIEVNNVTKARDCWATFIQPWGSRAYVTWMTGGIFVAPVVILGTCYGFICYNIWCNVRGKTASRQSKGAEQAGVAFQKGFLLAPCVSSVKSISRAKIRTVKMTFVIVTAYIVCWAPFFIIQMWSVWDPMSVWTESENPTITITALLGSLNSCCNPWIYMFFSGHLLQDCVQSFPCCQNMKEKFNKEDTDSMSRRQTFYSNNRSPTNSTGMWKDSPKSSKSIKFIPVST
human vasopressin V2 receptor, sequence (P30518 whole entry): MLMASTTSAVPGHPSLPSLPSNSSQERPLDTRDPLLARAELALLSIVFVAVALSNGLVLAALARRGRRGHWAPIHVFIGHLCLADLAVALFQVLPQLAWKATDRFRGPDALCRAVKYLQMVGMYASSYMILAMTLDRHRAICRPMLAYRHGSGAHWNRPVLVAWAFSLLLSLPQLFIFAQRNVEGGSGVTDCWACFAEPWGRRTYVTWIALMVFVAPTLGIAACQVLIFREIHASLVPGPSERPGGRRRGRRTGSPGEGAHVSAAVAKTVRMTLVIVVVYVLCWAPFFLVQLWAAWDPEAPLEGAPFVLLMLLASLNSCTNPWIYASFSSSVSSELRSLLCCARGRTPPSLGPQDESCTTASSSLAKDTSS
mouse V1a receptor, sequence (Q62463 whole entry): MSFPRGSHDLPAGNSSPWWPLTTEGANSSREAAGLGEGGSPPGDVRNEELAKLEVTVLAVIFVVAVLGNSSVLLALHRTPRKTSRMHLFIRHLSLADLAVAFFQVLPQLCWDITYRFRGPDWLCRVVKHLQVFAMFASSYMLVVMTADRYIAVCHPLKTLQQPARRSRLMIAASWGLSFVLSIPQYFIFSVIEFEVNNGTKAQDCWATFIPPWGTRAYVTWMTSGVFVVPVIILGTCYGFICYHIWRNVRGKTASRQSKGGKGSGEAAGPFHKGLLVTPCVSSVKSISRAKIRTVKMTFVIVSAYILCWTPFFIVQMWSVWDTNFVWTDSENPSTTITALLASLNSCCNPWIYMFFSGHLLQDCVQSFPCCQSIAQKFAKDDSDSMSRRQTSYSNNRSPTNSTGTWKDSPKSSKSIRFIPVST
mouse vasopressin V1a receptor, sequence (Q62463 whole entry): as above

Take `CC(C)(C)OC(=O)NC1Cc2cc(Cl)ccc2-n2c(nnc2C2CCN(c3ccccn3)CC2)C1` (stereo not shown) [Example 1, Tert-butyl [8-chloro-1-[1-(pyridin-2-yl)piperidin-4-yl]-5,6-dihydro-4H-[1,2,4]triazolo[4,3-a][1]benzazepin-5-yl]carbamate]: in experiment [1], the IC50 was 95 nM. For the same molecule, the Ki in experiment [2] came out at 6 nM. Moreover, the inhibition at 1 µM in experiment [3] stood at 4%.

For the molecule `NC1Cc2cc(Cl)ccc2-n2c(nnc2[C@H]2CC[C@H](Oc3ccccn3)CC2)C1` (stereo partly drawn) [Example 6, 8-chloro-1-[trans-4-(pyridin-2-yloxy)cyclohexyl]-5,6-dihydro-4H-[1,2,4]triazolo[4,3-a][1]benzazepine-5-amine], the 50% inhibitory concentration (IC50) in experiment [1] was found to be 9 nM. Further, in experiment [2], the Ki was determined as 2 nM. The inhibition at 1 µM in experiment [3] is 3%.

For the molecule `CS(=O)(=O)NC1Cc2cc(Cl)ccc2-n2c(nnc2[C@H]2CC[C@H](Oc3ccccn3)CC2)C1` (stereo partly drawn) [Example 18, N-{8-chloro-1-[trans-4-(pyridin-2-yloxy)cyclohexyl]-5,6-dihydro-4H-[1,2,4]triazolo[4,3-a][1]benzazepin-5-yl}methanesulfonamide], the IC50 in experiment [1] was found to be 1.6 nM. The Ki in experiment [2] was 0.5 nM; in experiment [3], 255 nM.

Take `CN(C1Cc2cc(Cl)ccc2-n2c(nnc2[C@H]2CC[C@H](Oc3ccccn3)CC2)C1)S(C)(=O)=O` (stereo partly drawn) [Example 19, N-{8-chloro-1-[trans-4-pyridin-2-loxcyclohexyl]-5,6-dihydro-4H-[1,2,4]triazolo[4,3-a][1]benzazepin-5-yl}-N-methylmethanesulfonamide]: the 50% inhibitory concentration (IC50) in experiment [1] was 1.8 nM. In addition, the inhibition constant (Ki) in experiment [2] was 0.4 nM; in experiment [3], 610 nM.

In the case of `CN(C)S(=O)(=O)NC1Cc2cc(Cl)ccc2-n2c(nnc2[C@H]2CC[C@H](Oc3ccccn3)CC2)C1` (stereo partly drawn) [Example 20, N′-{8-chloro-1-[trans-4-(pyridin-2-yloxy)cyclohexyl]-5,6-dihydro-4H-[1,2,4]triazolo[4,3-a][1]benzazepin-5-yl}-N,N-dimethylsulfamide], the IC50 in experiment [1] was 1 nM. Besides, the inhibitory constant (Ki) in experiment [2] was determined as 0.7 nM; in experiment [3] it was 365 nM.

In the case of `CNC1Cc2cc(Cl)ccc2-n2c(nnc2[C@H]2CC[C@H](Oc3ccccn3)CC2)C1` (stereo partly drawn) [Example 21, 8-chloro-N-methyl-1-[trans-4-(pyridin-2-yloxy)cyclohexyl]-5,6-dihydro-4H-[1,2,4]triazolo[4,3a][1]benzazepine-5-amine], the IC50 in experiment [1] came out at 4 nM. Moreover, in experiment [2], the Ki was 0.7 nM. Besides, the inhibition at 1 µM in experiment [3] is 35%.

`CC(C)NC1Cc2cc(Cl)ccc2-n2c(nnc2[C@H]2CC[C@H](Oc3ccccn3)CC2)C1` (stereo partly drawn) [Example 24, 8-chloro-N-(propan-2-yl)-1-[trans-4-(pyridin-2-yloxy)cyclohexyl]-5,6-dihydro-4H-[1,2,4]triazolo[4,3-a][1]benzazepine-5-amine]: in experiment [1], the IC50 worked out at 7 nM. Moreover, the Ki is 1 nM in experiment [2] and 25 nM in experiment [5]. In addition, the “inhibition (%) of oxytocin-induced scratching behaviour response” value (shortened to “inhibition (%)”) in experiment [4] (setting [6]) is listed as 94* %.

Turning to `CC(C)N[C@H]1Cc2cc(Cl)ccc2-n2c(nnc2[C@H]2CC[C@H](Oc3ccccn3)CC2)C1` [Example 25], the half-maximal inhibitory concentration (IC50) in experiment [1] is 23 nM. The figures for the inhibition constant Ki in experiment [2] and in experiment [5] were 2.3 nM and 353 nM, respectively. In experiment [4] (setting [6]), the “inhibition (%)” value was 42* %.

Consider `FC(F)(F)c1ccc2c(c1)CC1(Cc3nnc([C@H]4CC[C@H](Oc5ccccn5)CC4)n3-2)OCCO1` [Example 47], for which the IC50 in experiment [1] was found to be 2.3 nM. For the same molecule, the Ki in experiment [2] stood at 0.8 nM; in experiment [3], 366 nM.

As to `Clc1ccc2c(c1)CC1(Cc3nnc([C@H]4CC[C@H](Oc5ccccn5)CC4)n3-2)OCCO1` [Example 53, 8′-chloro-1′-[trans-4-(pyridin-2-yloxy)cyclohexyl]-4′H,6′H-spiro[1,3-dioxolane-2,5′-[1,2,4]triazolo[4,3-a][1]benzazepine]], in experiment [4] (10 mg/kg p.o. pretreatment), the “inhibition (%)” value was 118%. Also, the Ki in experiment [5] amounted to 1.1 nM.

The values are drawn from patent US11298363B2, “Triazolobenzazepines as vasopressin V1a receptor antagonists” (RICHTER GEDEON NYRT., priority 2017, dated 2022).
